Experimental findings from patent US11098061B2 (Celgene CAR LLC, priority 2013, dated 2021) are described below.

Molecules are shown by their SMILES.

Broadly, the IC50 is the midpoint of a concentration-inhibition curve.

In experiment [1] the target is T1, MK2 (Homo sapiens (Human), UniProt P49137). The experiment in a line: MK2 cellular assay (Hsp27 phosphorylation in Thp-1 cells). The class given is cell-based. The following applies: differentiated Thp-1 cells, compound 1 hour, 50 ng/ml LPS 15 minutes, phosphorylation of Hsp27; read-out: MK2EC50. In a few lines:
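PMA-differentiated (10 ng/ml, 2 days) human Thp-1 monocytic cells given compound for 1 h, washed, then stimulated with 50 ng/ml LPS for 15 min. Hsp27 phosphorylation measured by western blot of lysates (20 μg protein); EC50 from dose-response inhibition.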

In experiment [2] the target is T1, MK2. The experiment in a line: MK2 modification assessment by whole protein mass spectrometry. Format: binding. As to conditions: intact MK2, 60 min, 10-fold excess of compound to protein. In a few lines:
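MK2 treated with compound is analysed intact by MALDI-TOF after C4 cleanup in sinapinic acid matrix. Percent modification is the centroid mass shift against control MK2 divided by compound mass.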

The subject of experiment [3] is TNFα release. The experiment in a line: IV mouse PD experiment (TNFα release after LPS). Format: in vivo. As to conditions: CD-1 male mice, less than 10 mg/kg IV, 1 hour prior to LPS. Here is the method: CD-1 male mice, approximately 5 weeks old were acquired from Charles River Laboratories. Animals were housed in ventilated cages with a 12/12 light cycle and provided rodent chow and water ad libitum. Mice were acclimated at least 1 week prior to study initiation (approximately 6 weeks old). Five (5) mice per group were predosed with one of the following compounds: II-14, III-32, III-8, III-4, II-27 and III-40 (intravenously by lateral tail vein), 1 hour prior to LPS administration. LPS (E.Coli 055:B5 from Sigma, Cat #L2880) was diluted in 0.9% sterile saline (Webster Veterinary Supply, Cat #07-883-6734) to a final concentration of 30 μg/mL. Animals were administered 15 μg in 0.5 mL/mouse (approximately 0.5 mg/kg LPS) intraperitoneally. One hour post LPS administration, the mice were sacrificed via CO2 and whole blood was collected by cardiac puncture. Blood was placed in EDTA K2 tubes (Braintree Scientific, Cat #MT-1395), inverted 3 times and placed on wet ice until centrifugation at 4° C. Plasma was collected and stored on dry ice until stored at −80° C. until processing. TNFα levels were quantified using the “Mouse TNF-alpha Ultra-Sensitive Kit” from mesoscale.com (catalog number K152BHC-2) in conjunction with an MSD plate reader.

Experiment [4] concerns the target p38a activated, mitogen-activated protein kinase-activated protein kinase 2 (MAPKAP-K2 or MK-2) enzyme (Homo sapiens (Human), UniProt P49137). Briefly: MK2 Omnia continuous-read kinase assay for compound potency. Format: biochemical. As to conditions: [MK-2]=0.4 nM, [ATP]=1.0 mM, [ST3-Sox]=10 μM. A digest of the protocol: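 Continuous Omnia fluorescence read (λex360/λem485) every 71 s after starting with 0.4 nM MK-2, with 1.0 mM ATP (appKM 8-10 μM) and 10 μM ST3-Sox substrate.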

For experiment [5], the system named is TNFα release. The experiment in a line: PO mouse PD experiment (TNFα release after LPS). The class given is in vivo. As to conditions: CD-1 male mice, 30 mg/kg PO, 1 hour prior to LPS, read-out: % Inhibition of TNFa. On the procedure:
CD-1 male mice, approximately 5 weeks old were acquired from Charles River Laboratories. Animals were housed in ventilated cages with a 12/12 light cycle and provided rodent chow and water ad libitum. Mice were acclimated at least 1 week prior to study initiation (approximately 6 weeks old). Five (5) mice per group were predosed at 30 mg/kg PO with one of the following compounds: III-8, III-35, II-27, III-47, III-56, V-39, II-27, III-37, II-e-1, II-e-3, III-40, and V-58 (by oral gavage as a suspension in 0.5% methyl cellulose/0.25% Tween 80 in deionized water), 1 hour prior to LPS administration. LPS (E.Coli 055:B5 from Sigma, Cat #L2880) was diluted in 0.9% sterile saline (Webster Veterinary Supply, Cat #07-883-6734) to a final concentration of 30 μg/mL. Animals were administered 15 μg in 0.5 mL/mouse (approximately 0.5 mg/kg LPS) intraperitoneally. One hour post LPS administration, the mice were sacrificed via CO2 and whole blood was collected by cardiac puncture. Blood was placed in EDTA K2 tubes (Braintree Scientific, Cat #MT-1395), inverted 3 times and placed on wet ice until centrifugation at 4° C. Plasma was collected and stored on dry ice until stored at −80° C. until processing. TNFα levels were quantified using the “Mouse TNF-alpha Ultra-Sensitive Kit” from mesoscale.com (catalog number K152BHC-2) in conjunction with an MSD plate reader.

Experiment [6] deals with TNFα release. Briefly: PO mouse PD experiment (TNFα release after LPS). The class given is in vivo. As to conditions: CD-1 male mice, 100 mg/kg PO, 1 hour prior to LPS, read-out: % Inhibition of TNFa.
In experiment [7] the target is T1, MK2. The experiment in a line: MK2 target occupancy assay in Thp-1 cells with Covalent probe 2. Format: cell-based. As to conditions: 1 μM test compound, 1 hour at 37° C. Here is the method:
This experiment measured occupancy of the MK2 target by compounds according to the invention. Thp-1 cells (human acute monocytic leukemia) were grown in suspension in T225 flasks. Two days prior to assay, Thp-1 cells were spun down, counted and plated at 1×10^6 cells per well of a 12 well plate in compete media containing 10 ng/ml PMA (phorbol myristate acetate) to differentiate the cells. On day of assay, cells were washed with complete media, and a -test compound was added to cells at a concentration of 1 μM in complete media and incubated for 1 hour at 37° C. Cells were washed 1× with PBS and lysed on ice with BioRad Bioplex lysis buffer. The lysates were incubated with 1 μM biotinylated MK2 Covalent probe 2 at room temperature for 1 hour. 50 μg of total protein from lysates was loaded on gel and blots were probed for total MK2 with SC-100393 antibody and for probe with streptavidin-800. The amount of covalent probe signal divided by the amount of MK2 signal for samples with no test compound treatment represents the maximum probe signal (MPS). In samples treated with test compound prior to covalent probe, the ratio of probe signal to MK2 signal (the test probe signal, TPS) will be reduced by the degree of target occupancy by the test compound which blocks covalent probe binding. […] This ratio is then expressed as a percent occupancy.

Experiment [8] concerns the target T1, MK2. Briefly: MK2 Thp-1 washout assay. Format: cell-based. The following applies: up to 6 hours after a 100 nM exposure (1 hour) and subsequent washout, Thp-1 cells. Here is the method: Test compounds were assayed in Thp-1 human acute monocytic leukemia cells. Thp-1 were grown in suspension in T225 flasks. Two days prior to assay, Thp-1 cells were spun down, counted and plated at 1×10^6 cells per well of a 12 well plate in complete media containing 10 ng/ml PMA (phorbol myristate acetate) to differentiate the cells. […] Cells were thoroughly washed to remove the unbound test compound and placed back in the 37° C. tissue culture incubator for the washout period (0 h, 2 h, 6 h, or 16 h). After the washout, complete media containing 50 ng/ml LPS (lipopolysaccharide) was added for 15 minute stimulation, the cells were washed once with PBS, and protein lysates were prepared on ice with BioRad Bioplex lysis buffer. 20 μg total protein from each lysate was loaded on the gel and analyzed by SDS-PAGE. Western blots were probed for phosphorylation of the MK2 substrate Hsp27.

Sequence of p38a activated, mitogen-activated protein kinase-activated protein kinase 2 (MAPKAP-K2 or MK-2) enzyme (P49137 whole entry): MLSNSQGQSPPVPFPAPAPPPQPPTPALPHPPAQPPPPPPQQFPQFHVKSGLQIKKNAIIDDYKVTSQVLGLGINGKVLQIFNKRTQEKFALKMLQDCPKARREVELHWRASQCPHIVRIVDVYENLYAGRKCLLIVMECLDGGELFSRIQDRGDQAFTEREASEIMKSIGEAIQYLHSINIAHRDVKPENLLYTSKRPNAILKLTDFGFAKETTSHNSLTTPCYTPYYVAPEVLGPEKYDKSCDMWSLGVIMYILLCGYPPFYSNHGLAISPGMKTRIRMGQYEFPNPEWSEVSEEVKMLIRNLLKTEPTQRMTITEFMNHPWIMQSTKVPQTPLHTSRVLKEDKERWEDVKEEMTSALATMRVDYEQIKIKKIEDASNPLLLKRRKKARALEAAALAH
T1 sequence (P49137 whole entry): as above

Take `C=CC(=O)Nc1cc(NC(=O)c2ccc3sc4c(c3c2)NC[C@@H](C)NC4=O)ccc1N1CCN(C)CC1` [III-4, (R)—N-(3-acrylamido-4-(4-methylpiperazin-1-yl)phenyl)-3-methyl-5-oxo-2,3,4,5-tetrahydro-1H-benzo[4,5]thieno[3,2-e][1,4]diazepine-9-carboxamide]: the EC50 in experiment [1] is less than 100 nM. Further, the “MK2 Mass Mod” value in experiment [2] is given as “E (mass modification of ≥70%)”. The “reduction in TNFα release compared to untreated control” value (from here on “reduction in TNFα release”) in experiment [3] was “greater than 90%”. Moreover, in experiment [4], the IC50 was less than 100 nM.

On to `C=CC(=O)Nc1cc(-c2cc3c(cn2)CCc2c-3[nH]c3c2C(=O)NC2(CC2)C3)ccc1N1CCN(C)CC1` [II-27, N-(2-(4-methylpiperazin-1-yl)-5-(7′-oxo-5′,6′,7′,8′,10′,11′-hexahydrospiro[cyclopropane-1,9′-pyrido[3′,4′:4,5]pyrrolo[2,3-f]isoquinolin]-2′-yl)phenyl)acrylamide], for which the EC50 in experiment [1] was less than 100 nM. The “MK2 Mass Mod” value in experiment [2] was “E (mass modification of ≥70%)”. The “reduction in TNFα release” value in experiment [3] is recorded as “greater than 90%”. Further, the inhibition in vivo at 30 mg/kg in experiment [5] was not above 20%. Further, in experiment [4], the IC50 is less than 100 nM.

Consider `C=CC(=O)N1CC(C)(C)Oc2ccc(NC(=O)c3ccc4sc5c(c4c3)NC[C@@H](C)NC5=O)cc21` [III-32, (R)—N-(4-acryloyl-2,2-dimethyl-3,4-dihydro-2H-benzo[b][1,4]oxazin-6-yl)-3-methyl-5-oxo-2,3,4,5-tetrahydro-1H-benzo[4,5]thieno[3,2-e][1,4]diazepine-9-carboxamide], for which, in experiment [1], the EC50 is less than 100 nM. In addition, the “MK2 Mass Mod” value in experiment [2] is reported as “E (mass modification of ≥70%)”. Also, in experiment [3], the “reduction in TNFα release” value is “greater than 90%”. Besides, the IC50 in experiment [4] is less than 100 nM.

With `C=CC(=O)Nc1cc(-c2ccc3c(ccc4sc5c(c43)NC[C@@H](C)NC5=O)n2)ccc1OCCOC` [III-8, (R)—N-(2-(2-methoxyethoxy)-5-(10-methyl-8-oxo-9,10,11,12-tetrahydro-8H-[1,4]diazepino[5′,6′:4,5]thieno[3,2-f]quinolin-3-yl)phenyl)acrylamide], in experiment [1], the EC50 is less than 100 nM. The “MK2 Mass Mod” value in experiment [2] was “E (mass modification of ≥70%)”. Also, the “reduction in TNFα release” value in experiment [3] is “greater than 90%”. Further, the inhibition in vivo at 100 mg/kg in experiment [6] lay within 21 to 80%. In experiment [7], this compound returned a receptor occupancy at 1 µM of 92%. Also, in experiment [4], the IC50 was in the range of 101 to 500 nM.

For `C=CC(=O)Nc1cc(-c2ccc3c(ccc4sc5c(c43)NC[C@@H](C)NC5=O)n2)ccc1OCCN(C)C` [III-40, (R)—N-(2-(2-(dimethylamino)ethoxy)-5-(10-methyl-8-oxo-9,10,11,12-tetrahydro-8H-[1,4]diazepino[5′,6′:4,5]thieno[3,2-f]quinolin-3-yl)phenyl)acrylamide], the EC50 in experiment [1] was less than 100 nM. Besides, the “reduction in TNFα release” value in experiment [3] is recorded as “greater than 90%”. Further, the inhibition in vivo at 30 mg/kg in experiment [5] is not above 20%. Besides, the IC50 in experiment [4] was less than 100 nM.

Turning to `C=CC(=O)Nc1cc(-c2cc3c(cn2)CCc2c-3[nH]c3c2C(=O)NC2(CC2)C3)ccc1OCCOC` [II-11, N-(2-(2-methoxyethoxy)-5-(7′-oxo-5′,6′,7′,8′8′,1′,11′-hexahydrospiro[cyclopropane-1,9′-pyrido[3′,4′:4,5]pyrrolo[2,3-f]isoquinolin]-2′-yl)phenyl)acrylamide], in experiment [1], the EC50 was less than 100 nM. Also, the “MK2 Mass Mod” value in experiment [2] is “E (mass modification of ≥70%)”. Also, in experiment [8], the “inhibition of p-hsp27 (phosphorylated hsp27) after washout” value is listed as more than 95%. In experiment [7], this compound registered a receptor occupancy at 1 µM of 95%. The IC50 in experiment [4] was less than 100 nM.

As for `C=CC(=O)Nc1cc(-c2cc3c(cn2)CCc2c-3[nH]c3c2C(=O)NCC3)cnc1OCCOC` [II-14, N-(2-(2-methoxyethoxy)-5-(7-oxo-6,7,8,9,10,11-hexahydro-5H-pyrido[3′,4′:4,5]pyrrolo[2,3-f]isoquinolin-2-yl)pyridin-3-yl)acrylamide], in experiment [1], the EC50 was less than 100 nM. The “MK2 Mass Mod” value in experiment [2] is given as “E (mass modification of ≥70%)”. For the same compound, the “reduction in TNFα release” value in experiment [3] is recorded as “greater than 90%”. Further, the IC50 in experiment [4] was less than 100 nM.
